Assays:
PRPK/TPRKB = molecular target: T1, PRPK/TPRKB (Homo sapiens, UniProt Q96S44+Q9Y3C4); assay: Competition for PRPK/TPRKB binding to the pomalidomide-based affinity reagent (affigel pulldown); settings: FIG. 4; excess free competitor
T1 construct: host or cells: HEK-293FT
Method: Cell lysates were prepared from 2×10^8 Jeko-1, Jurkat, or HS-Sultan cells or 5×10^7 HeLa S3 cells per pulldown sample by lysis in 2 mL Buffer B (50 mM HEPES pH 7.5, 5% glycerol, 1.5 mM MgCl2, 150 mM NaCl, 1 mM Na3VO4, 25 mM NaF, 0.4% Nonidet P-40, 1 mM DTT, and 1 Complete Mini EDTA-free protease inhibitor tablet per 10-25 mL Buffer B). Lysates were incubated on ice for 30 mM, followed by 2× freeze-thaw using liquid N2 and 37° C. water bath in polypropylene tubes. Samples were centrifuged at 1800 rpm for 5 mM at 4° C. Supernatants were ultracentrifuged at 55,000 rpm for 1 hr at 4° C. Supernatants were collected and pre-cleared with 10 μL control affigel reagent (affigel-ethanolamine or affigel-PEG linker) by incubation on a rotator for 30 mM at 4° C. Pre-cleared lysates were transferred to Mobicol 1 mL columns with 90 μm pore size frit on ice and centrifuged at 0.1 rcf for 10 sec to separate affigel beads from lysates. Incubations with pre-cleared lysates and excess pomalidomide were performed at a 20-fold excess competitor concentration (500 μM final concentration) on a rotator for 30 mM at 4° C. Subsequently, 10 μL control or pomalidomide-based affigel reagents were added to each sample and pulldowns were performed for 1 hr at 4° C. Lysates and affigel reagents were transferred to Mobicol 1 mL columns with 90 μm pore size frit and affigel beads were washed 3× with 800 μL Buffer B and 2× with 800 μL Buffer A (Buffer B not including 0.4% Nonidet P-40). Columns were centrifuged for 30 sec at 0.1 rcf to remove any remaining wash buffer and then closed with lower plug. Columns were placed in 1.5 mL Low-binding Eppendorf tubes and heated at 50° C. for 30 mM in 40 uL 2×SDS sample buffer with 10 mM DTT to elute bound proteins from affigel reagents. Columns were then opened and eluents were collected in the low-binding Eppendorf tubes by 15 sec centrifugation at 1600 rpm. Samples were applied and resolved on 4-12% SDS-PAGE gels followed by silver staining (SilverQuest Kit, Invitrogen, Carlsbad, Calif.). Bands which were competed by excess actimid competitor but not by DMSO were excised and identified by LC/MS/MS analysis at the Beth Israel Deaconess Medical Center Mass Spectrometry Core Facility (Boston, Mass.).
C-term Myc-DDK tagged PRPK and C-term Myc-DDK tagged TPRKB proteins were transiently overexpressed from cDNAs (obtained from Origene, Rockville, Md.) in HEK-293FT cells using FuGENE-6 transfection reagent according to the manufacturer's protocol (Roche, Indianapolis, Ind.). One day prior to transfection, 2.5×10^6 HEK-293FT cells were plated per p100 dish. Cells were lysed 48 hr post-transfection in 1-2 mL Buffer B per p100 dish per sample. […] The amount of PRPK and TPRKB captured by each affinity reagent was determined by silver stain and anti-DDK (anti-DDK monoclonal antibody, Origene) Western blot. Competition experiments were also performed using a variety of compounds and derivatives (pomalidomide, lenalidomide, thalidomide, CMPD 31, CMPD 30, CMPD 29).

B cell growth = assay: Growth inhibition assay, inhibition with CMPD 31; type: cell-based; settings: FIG. 8; CMPD 31 at final concentration of 10 μM
Method: This protocol describes the technique to perform growth inhibition assays in 96-well format. This assay was used to calculate growth inhibition IC50 values of lenalidomide, pomalidomide, all derivatives and inhibition with CMPD31.
Cell lines Jurkat, NCI-H929, and JeKo-1 were obtained from ATCC and were maintained by vendor-specified media requirements. Cells were plated in 96-well plates at 3,750 cells per well (Jeko-1, HS-Sultan) or 5,000 cell per well (NCI-H929) in 90 μL of assay growth medium (RPMI-1640, 10% FBS, 1% pen-strep). Cells in plates were allowed to incubate at room temperature for one hour and then transferred to an incubator set at 37° C. and 5% CO2 humidified air overnight.
Compounds were serially diluted 3-fold in 100% DMSO into duplicate 10-point dose curves using a Biomek FX liquid handler in columns 2 through 11 of a 96-well U-bottom plate. Starting concentrations of compounds was 10 mM. Daughter plates containing 2 μL of the compound dose curves were stamped and stored at −80 C. […]
Compound and control daughter plates were diluted 100-fold in 200 μl of assay growth medium and then finally diluted 10-fold more into the 96-well cell plates; a final dilution of 1000-fold in 0.1% DMSO for all wells. […] Plates were incubated for 2 hours at 37° C. in 5% CO2 and then plates were read on a Perkin Elmer Victor^3 V plate reader with excitation at 560 nm and emission at 590 nm. […]

[1] = system: IL-2 production by Jurkat and PBMCs; assay: IL-2 production assay, inhibition with CMPD 31; type: cell-based, human; settings: FIG. 8; CMPD 31 at final concentration of 10 μM
Description: This protocol describes the technique to detect the amount of IL-2 produced by Jurkat and PBMCs in 96-well format. This assay was used to calculate IL-2 production EC50 values of lenalidomide, pomalidomide, all derivatives and inhibition with CMPD 31.
Logarithmically growing Jurkat cells from ATCC (clone E6-1) or frozen and thawed human PBMCs from Astarte (Peripheral Blood Mononuclear Cells, normal Donor 41) were resuspended at 1×10^6 cells/mL in RPMI-1640 medium containing 10% FBS and 1% antibiotic/antimycotic solution. Cells were plated into each well of a 96-well anti-CD3 plate (Becton Dickinson catalogue number #354725) at 1×10^5 cells/100 μl per well. […]
Compound daughter plates were resuspended in 200 μL of RPMI-1640 medium as a 10× stock and then 20 μL of the 10× stock was added to each anti-CD3 antibody assay plate well with a final volume of 200 μl by the addition of 80 μl of complete media. […] The amount of IL-2 produced was determined by an ELISA assay and was performed in one of two ways as per manufacturer instructions; by a standard ELISA (Enzyme-Linked Immunosorbent Assay) protocol method (Becton Dickinson) or an AlphaLISA protocol (Perkin Elmer). […]

[2] = system: natural killer cells in PBMCs; assay: Natural killer cell assay (DELFIA NK lytic activity); type: cell-based, human; settings: FIG. 9; anti-CD3 stimulated PBMCs, 72 hours
Method: On the day of initial treatment, cryopreserved peripheral blood mononuclear cells from a healthy donor (PBMCs; Astarte Biologics) were thawed in RPMI-1640 containing 10% fetal bovine serum, 1% penicillin-streptomycin and 25 mM HEPES buffer (complete medium) at 37° C. PBMCs were centrifuged two times at 1000 rpm to remove residual DMSO and debris and counted on a haemocytometer. Cells were used at a final cell density of 1×10^6 cells per mL in complete medium. […]
Following the 72 hour treatment, NK cells were assayed for lytic activity using the DELFIA cell cytoxicity assay from Perkin-Elmer according to manufacturer's instructions. […] K562 cells were resuspended in DMEM containing 10% fetal bovine serum and 1% penicillin-streptomycin, counted on a hemacytometer and diluted to 1×10^6 cells per mL. […] Europium solution (200 μL) was added to the supernatants and the plate was placed on a Wallac Victor microplate reader. Following a 15 minute orbital shake at high speed, the plate was read using time-resolved fluorescence (Excitation at 340 nm, Emission at 615 nm; delay 400 μsec; counting window 400 μsec, cycle 1000 μsec). […]

T1 sequence (Q96S44 whole entry, other chains not shown): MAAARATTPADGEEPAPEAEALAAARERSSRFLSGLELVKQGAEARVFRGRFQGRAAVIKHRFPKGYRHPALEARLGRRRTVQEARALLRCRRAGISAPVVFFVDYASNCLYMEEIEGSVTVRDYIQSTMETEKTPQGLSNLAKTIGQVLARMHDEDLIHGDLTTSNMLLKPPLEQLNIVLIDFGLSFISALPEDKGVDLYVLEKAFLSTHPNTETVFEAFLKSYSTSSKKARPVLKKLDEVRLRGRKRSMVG

SMILES | compete for PRPK/TPRKB target binding to the pomalidomide-based affinity reagent (PRPK/TPRKB) | suppression of the activity of lenalidomide and pomalidomide in inhibition of B cell growth (B cell growth) | suppression of the activity of lenalidomide and pomalidomide in induction of IL-2 production [1] | natural killer cell activation in PBMCs [2]
CN1C(=O)CCC(N2C(=O)c3cccc(N)c3C2=O)C1=O (stereo not shown) [CMPD 29, 4-Amino-2-(1-methyl-2,6-dioxopiperidin-3-yl)isoindoline-1,3-dione] | compete |  |  | 
Nc1cccc2c1C(=O)N([C@H]1CCC(=O)NC1)C2=O [CMPD 30, (S)-4-Amino-2-(6-oxopiperidin-3-yl)isoindoline-1,3-dione] | does not |  |  | 
Nc1ccc2c(c1)C(=O)N(C1CCC(=O)NC1=O)C2=O (stereo not shown) [CMPD 31] | compete | suppresses | suppresses | 
Nc1cccc2c1CN(C1CCC(=O)NC1=O)C2=O (stereo not shown) [lenalidomide] | compete |  |  | activation
Nc1cccc2c1C(=O)N(C1CCC(=O)NC1=O)C2=O (stereo not shown) [pomalidomide] | compete |  |  | activation
O=C1CCC(N2C(=O)c3ccccc3C2=O)C(=O)N1 (stereo not shown) [thalidomide] | compete |  |  | 
